For ten molecules, IC50 and inhibition results are on record in ChEMBL document CHEMBL1909593, “Identification of novel plasmin inhibitors possessing nitrile moiety as warhead” (Bioorg Med Chem Lett, 2011).

The target of test [1] is T1, Plasminogen (Homo sapiens, UniProt P00747). The test can be described thus: Inhibition of plasmin.
Test [2] addresses T2, Plasma kallikrein (Homo sapiens, UniProt P03952). The test can be described thus: Inhibition of plasma kallikrein.
Test [3] has as its target Urokinase-type plasminogen activator (Homo sapiens) (UniProt P00749). Put plainly: Inhibition of urokinase at 200 uM.
Test [4] shares this target. The test can be described thus: Inhibition of urokinase at 500 uM.
For test [5], the target named is T1, Plasminogen. Put plainly: Inhibition of plasmin at 250 uM.
In test [6] the target is T2, Plasma kallikrein. The test can be described thus: Inhibition of plasma kallikrein at 250 uM.
For test [7], the target named is T2, Plasma kallikrein. Put plainly: Inhibition of plasma kallikrein at 1000 uM.
Test [8] has as its target Urokinase-type plasminogen activator (Homo sapiens) (UniProt P00749). Put plainly: Inhibition of urokinase at 1000 uM.
Test [9] shares this target. Put plainly: Inhibition of urokinase at 400 uM.

T1 sequence (P00747 97-580 limits assumed): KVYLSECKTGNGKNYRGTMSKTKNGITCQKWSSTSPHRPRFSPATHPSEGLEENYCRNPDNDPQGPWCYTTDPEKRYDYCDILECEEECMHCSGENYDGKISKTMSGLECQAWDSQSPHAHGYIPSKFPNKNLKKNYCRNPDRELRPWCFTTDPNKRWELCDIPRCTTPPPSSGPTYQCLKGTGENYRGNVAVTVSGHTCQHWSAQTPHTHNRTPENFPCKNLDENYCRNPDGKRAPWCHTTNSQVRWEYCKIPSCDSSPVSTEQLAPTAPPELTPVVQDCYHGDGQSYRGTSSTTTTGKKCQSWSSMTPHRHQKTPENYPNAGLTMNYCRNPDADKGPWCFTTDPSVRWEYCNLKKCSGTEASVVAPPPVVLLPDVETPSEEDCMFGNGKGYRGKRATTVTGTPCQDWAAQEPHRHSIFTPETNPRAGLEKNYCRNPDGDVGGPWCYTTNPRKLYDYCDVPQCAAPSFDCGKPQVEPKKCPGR
T1 sequence (P00747 581-810 limits assumed): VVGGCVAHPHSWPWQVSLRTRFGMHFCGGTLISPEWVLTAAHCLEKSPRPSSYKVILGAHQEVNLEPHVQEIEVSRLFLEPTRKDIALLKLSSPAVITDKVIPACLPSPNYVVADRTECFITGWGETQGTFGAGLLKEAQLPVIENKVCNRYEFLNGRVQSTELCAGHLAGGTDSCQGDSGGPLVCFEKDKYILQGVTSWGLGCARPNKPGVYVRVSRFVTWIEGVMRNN
T2 sequence (P03952 20-390 limits assumed): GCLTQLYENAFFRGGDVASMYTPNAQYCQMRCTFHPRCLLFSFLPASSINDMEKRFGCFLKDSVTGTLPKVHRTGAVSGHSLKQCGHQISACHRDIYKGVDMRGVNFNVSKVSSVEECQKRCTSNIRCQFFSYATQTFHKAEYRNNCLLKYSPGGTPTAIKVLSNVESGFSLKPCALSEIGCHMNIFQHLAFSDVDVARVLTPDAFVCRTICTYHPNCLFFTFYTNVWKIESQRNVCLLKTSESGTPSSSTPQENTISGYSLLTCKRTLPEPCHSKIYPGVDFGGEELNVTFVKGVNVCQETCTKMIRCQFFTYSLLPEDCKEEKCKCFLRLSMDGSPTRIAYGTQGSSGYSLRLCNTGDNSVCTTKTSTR
T2 sequence (P03952 391-638 limits assumed): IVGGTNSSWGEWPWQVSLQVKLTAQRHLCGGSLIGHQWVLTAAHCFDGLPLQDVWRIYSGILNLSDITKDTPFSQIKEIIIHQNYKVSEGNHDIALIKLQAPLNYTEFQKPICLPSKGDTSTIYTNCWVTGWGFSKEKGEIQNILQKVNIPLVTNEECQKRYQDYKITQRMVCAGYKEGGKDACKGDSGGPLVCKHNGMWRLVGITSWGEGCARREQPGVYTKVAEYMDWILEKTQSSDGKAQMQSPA

As a reminder, the IC50 is the concentration that inhibits the measured activity by half. Read a high IC50 as weaker potency in that assay. By inhibition is commonly meant the relative decrease from the control value, in per cent. High values mean a strong effect, low ones a weak effect. `CC(C)(C)OC(=O)n1cc(CCC(=O)Nc2cc(C(=O)N[C@H](C#N)CCCCN)ccc2OCc2ccncc2)c2ccccc21`: the IC50 at Plasminogen [1] stood at 220 µM; against Plasma kallikrein [2], 910 µM. The molecule further yielded an inhibition in test [3] of 0%.

In the case of `N#C[C@H](CCCCN)NC(=O)c1ccc(OCc2ccncc2)c(NC(=O)Cc2ccc3ccccc3c2)c1`, the figures for the IC50 against Plasminogen [1] and against Plasma kallikrein [2] were 220 µM and 380 µM, respectively. The inhibition in test [4] amounted to 20%.

In the case of `COc1ccc(C(=O)N[C@H](C#N)CCCCN)cc1NC(=O)CCc1cn(Cc2ccc(F)cc2)c2ccccc12`, the inhibition was determined as 0% in test [3], 0% against Plasminogen [5] and 22% on Plasma kallikrein [6].

As to `N#C[C@H](CCCCN)NC(=O)c1ccc(OCc2ccncc2)c(NC(=O)CCc2c[nH]c3ccccc23)c1`, the inhibition at Plasma kallikrein [7] worked out at 44%; in test [3], 0%. The molecule also had an IC50 against Plasminogen [1] of 370 µM.

Regarding `N#C[C@H](CCCCN)NC(=O)c1ccc(OCc2ccncc2)cc1`, the inhibition amounted to 45% against Plasma kallikrein [7] and 16% in test [8]. At Plasminogen [1], this molecule yielded an IC50 of 240 µM.

For `N#C[C@H](CCCCN)NC(=O)c1ccc(OCc2ccncc2)c(NC(=O)Cc2ccc(F)cc2)c1`, the inhibition against Plasma kallikrein [7] is 11%; in [8], 19%. In addition, inhibition against Plasminogen [1] was half-maximal at 590 µM (IC50).

Turning to `N#C[C@H](CCCCN)NC(=O)c1ccc(OCc2ccncc2)c(NC(=O)Cc2cccc3ccccc23)c1`, the IC50 was found to be 570 µM against Plasminogen [1] and 680 µM at Plasma kallikrein [2]. Also, the inhibition in test [4] is 16%.

Regarding `CC[C@@H](C)[C@@H](N)C(=O)N[C@@H](Cc1ccccc1)C(=O)N[C@@H](CCCCN)C(N)=O`, the inhibition (on Plasma kallikrein [7]; in [8]) was 0% throughout. The molecule further had an IC50 on Plasminogen [1] of 290 µM.

Take `N#C[C@H](CCCCN)NC(=O)c1ccc(OCc2ccncc2)c(NC(=O)CCc2cn(Cc3ccc(F)cc3)c3ccccc23)c1`: the inhibition (against Plasma kallikrein [7]; in test [9]) was 0% each time. The molecule further gave an IC50 at Plasminogen [1] of 140 µM.

As to `CC[C@@H](C)[C@@H](N)C(=O)N[C@@H](Cc1ccccc1)C(=O)N[C@H](C#N)CCCCN`, the inhibition against Plasma kallikrein [7] is 38%; in test [8], 15%. At Plasminogen [1], 78 µM corresponded to half-maximal inhibition (IC50).
